System: elastase-treated model mouse of COPD
Experiment: Combination effect of cilostazol/probucol for pulmonary disorder in mouse treated with human neutrophil elastase (COPD model)
Format: in vivo, C57BL/6J mouse
Details: free feeding from 7 days before intratracheal human neutrophil elastase 20 U/50 μL, lungs 3 weeks after elastase, mean±standard deviation, control 178.8±22.4, normal 51.4±1.9, P<0.01 vs control
Text: Combination effect of cilostazol/probucol for pulmonary disorder in C57BL/6J mouse treated with elastase produced from human neutrophil.
• Animals: female C57BL/6J mice (5 weeks old) which were purchased from Charles River Laboratories Japan, Inc. were used.
Group composition: the following 5 groups. • Non-treated (normal control) group: n=4 • Elastase-treated group (control group): n=6 • Elastase-treated, 0.3% cilostazol-administrated group: n=6 • Elastase-treated, 0.5% probucol-administrated group: n=6 • Elastase-treated, (0.3% cilostazol+0.5% probucol)−administrated group: n=6
Female C57BL/6J mice (5 weeks old) were divided into the given groups by a stratified randomization (using an SAS software, R 8.1) based on each body weight on the starting day of administration. Shortly after the group division, a MF feed was given to the non-treated group and the control group, and a mixed feed in which cilostazol or/and probucol was added in the given ratio was given to the medicament(s)-treated groups, in free feeding. […]
The following groups were statistically analyzed in order to study about the effect of the single-administration and combination-administration of the medicament(s). • 1) Elastase-treated group (control group) • 2) 0.3% Cilostazol-administrated group • 3) 0.5% Probucol-administrated group • 4) (0.3% Cilostazol+0.5% probucol)−administrated group […]

Row | Structure (SMILES) | mean linear intercept of pulmonary alveolus (0.5% probucol in mixed feed) [μm] | mean linear intercept of pulmonary alveolus (0.3% cilostazol in mixed feed) [μm]
1 | CC(C)(Sc1cc(C(C)(C)C)c(O)c(C(C)(C)C)c1)Sc1cc(C(C)(C)C)c(O)c(C(C)(C)C)c1 [probucol, 4,4′-isopropylidenedithiobis[2,6-di-tert-butylphenol]] | 86.2±4.8 | 
2 | O=C1CCc2cc(OCCCCc3nnnn3C3CCCCC3)ccc2N1 [cilostazol, 6-[4-(1-cyclohexyl-1H-tetrazol-5-yl)butoxy]-3,4-dihydrocarbostyril] |  | 116.9±14.3

Source: patent US20100048621A1, “MEDICAMENT FOR TREATING CHRONIC OBSTRUCTIVE PULMONARY DISEASE” (priority 2007, published 2010)
